# Where “and” joins values, the source holds several entries; their conditions need not be identical. Equal values may be shown once. Read-outs that look alike come from different tables or passages of the source.
# Tests used:
# σ1R homomer = σ1R homomer (Homo sapiens, UniProt Q99720); test: Drug induced σ1R homomer BRET; format: cell-based; settings: for effect on σ1R homomer BRET signaling: 2.5-60 min
# σ1R [1] = biological target: σ1R (Cavia porcellus, UniProt Q60492); test: σ1R radioligand binding in guinea pig cortex with [3H]-
# σ1R (Cavia porcellus, UniProt Q60492), sequence (Q60492 whole entry): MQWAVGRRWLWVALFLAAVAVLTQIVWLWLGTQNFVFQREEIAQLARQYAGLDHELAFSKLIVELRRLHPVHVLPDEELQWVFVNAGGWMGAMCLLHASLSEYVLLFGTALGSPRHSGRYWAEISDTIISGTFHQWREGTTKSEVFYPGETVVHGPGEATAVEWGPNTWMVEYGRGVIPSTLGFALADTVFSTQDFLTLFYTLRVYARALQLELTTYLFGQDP
# [2] = Experimentally determined pKa
# σ1R [3] = biological target: T1, σ1R (Homo sapiens, UniProt Q99720); format: binding; settings: HEK 293T membrane; for Ki: read-out: Ki ± SEM, competition vs. 3 nM [3H]-(+)-pentazocine
# T1 sequence (Q99720 whole entry): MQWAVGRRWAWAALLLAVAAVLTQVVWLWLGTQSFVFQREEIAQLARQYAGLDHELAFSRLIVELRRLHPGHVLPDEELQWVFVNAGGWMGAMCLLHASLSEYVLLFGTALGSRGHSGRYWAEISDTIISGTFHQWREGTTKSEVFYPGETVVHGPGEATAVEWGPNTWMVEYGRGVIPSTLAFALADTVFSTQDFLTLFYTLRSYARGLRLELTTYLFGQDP
# σ1R [4] = biological target: T1, σ1R; format: binding; settings: read-out: Ki ± SEM; competition vs. 2 nM [3H]-haloperidol, HEK 293T membrane
# σ1R [5] = biological target: T1, σ1R; format: binding; settings: for displacement kinetics of [3H]-(+)-pentazocine: membrane preparation and whole cells, 15 min of incubation
# [6] = single-ligand mode, σ1-NL:σ1-VN
# [7] = read-out: Ki ± SEM, competition vs. 3 nM [3H]-(+)-pentazocine, guinea pig cortex
# [8] = 1 μM haloperidol or 1 μM PD144418 added prior to tested ligand
# σ1R homomer, sequence (Q99720 whole entry): as above
# σ1R homomer, sequence (Q99720 whole entry): as above
compound,measurement,setting,value
c1ccc(CCCCN2CCC(c3ccccc3)CC2)cc1 [4-PPBP],effect on σ1R homomer BRET in competition mode,σ1R homomer; in the presence of 1 μM PD144418,positive BRET signals were induced
same,effect on σ1R homomer BRET signaling,σ1R homomer; [6],positive dose-dependent induction of BRET signaling
same,Ki,σ1R [1]; [7],0.857 ± 0.153 nM
CC(C)=CCN1CC[C@]2(C)c3cc(O)ccc3C[C@H]1[C@H]2C [(+)-pentazocine],pKa,[2],9.2 to 9.3
CCCCN1[C@@H]2CC[C@H]1CC(OC(c1ccc(F)cc1)c1ccc(F)cc1)C2 (some centres unmarked) [JHW007],effect on σ1R homomer BRET in competition mode,σ1R homomer; [8],dose-dependent effects
same,effect on σ1R homomer BRET signaling,σ1R homomer; [6],no detectable effects on BRET signaling
same,Ki,σ1R [3],0.554 ± 0.172 nM
same,Ki,σ1R [1]; [7],1.48 ± 0.289 nM
same,Ki,σ1R [4],1.85 ± 0.0579 nM
same,displacement kinetics of [3H]-(+)-pentazocine,σ1R [5],immediate displacement
CCCN(CCC)CCc1ccc(OC)c(OCCc2ccccc2)c1 [NE-100],effect on σ1R homomer BRET in competition mode,σ1R homomer; [8],dose-dependent effects
same,effect on σ1R homomer BRET signaling,σ1R homomer; [6],no detectable effects on BRET signaling
same,Ki,σ1R [1]; [7],1.14 ± 0.283 nM
same,displacement kinetics of [3H]-(+)-pentazocine,σ1R [5],immediate displacement
CCCN1CCC=C(c2cc(-c3ccc(C)cc3)no2)C1 [PD144418],Emax (basal subtracted BRET change),σ1R homomer; [6],~0.02
same,effect on σ1R homomer BRET signaling,σ1R homomer; [6],positive dose-dependent induction of BRET signaling
same,Ki,σ1R [3],0.894 ± 0.11 nM
same,Ki,σ1R [1]; [7],0.842 ± 0.307 nM
same,Ki,σ1R [4],2.67 ± 0.578 nM
"O=C(OCCN1CCOCC1)C1(c2ccccc2)CCCCC1 [PRE-084, 2-(4-morpholinethyl)1 phenylcyclohexanecarboxylate]",effect on σ1R homomer BRET in competition mode,σ1R homomer; [8],dose-dependent effects
same,effect on σ1R homomer BRET signaling,σ1R homomer; [6],no detectable effects on BRET signaling
same,experimentally determined pKa,[2],6.2
same,displacement of [3H]-(+)-pentazocine,"σ1R [5]; membrane preparation, 15 and 120 min",92.4–96.1%
same,displacement of [3H]-(+)-pentazocine,"σ1R [5]; whole cell assay, 15 min",60.6%
same,displacement of [3H]-(+)-pentazocine,"σ1R [5]; whole cell assay, 120 min",below 76.1%
CC(C)=CCN1CC[C@]2(C)c3cc(O)ccc3C[C@H]1[C@H]2C [[^3H]-(+)-pentazocine],Bmax ± SEM,σ1R [3]; [3H]-(+)-pentazocine,2080 fmol/mg and 2080 ± 163 fmol/mg
COC(=O)[C@H]1[C@@H](OC(=O)c2ccccc2)C[C@@H]2CC[C@H]1N2C [cocaine],effect on σ1R homomer BRET in competition mode,σ1R homomer; [8],dose-dependent effects
same,effect on σ1R homomer BRET signaling,σ1R homomer; [6],no detectable effects on BRET signaling
same,Ki,σ1R [1],3710 ± 1170 nM

# Reference: publication PMC5858991 (Neuropharmacology, 2018)
